According to the supplement of paper PMC11061612:

Experiments:
Assay in all cases: combination Emax (second highest fraction inhibited in the dose matrix, 72 h); higher = more inhibition; extreme values may be limits of the assay
[1] = tested on: 23132-87 (Gastric Carcinoma)
Summary of the method: (§1)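 Cell lines grown in DMEM/F12 or RPMI with 10% FBS were plated in 1536-well plates and held 24 hours at 37°C, 5% CO2 before 72 hours of exposure to two-drug dose matrices, with DMSO typically at 0.2%. CellTiter-Glo 2.0 luminescence gave viability, which was converted to inhibition. Vehicle wells were set to 0 and blank wells to 1. Combination Emax is the second-highest inhibition in the matrix, and Bliss excess is the observed combination effect minus the expected EA + EB − EA·EB, where EA and EB are the single-agent effects.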

A2058 (Melanoma) = tested on: A2058 (Melanoma)
Summary of the method: as §1

[2] = tested on: CAL-62 (Thyroid Gland Carcinoma)
Summary of the method: as §1

[3] = tested on: COLO-680N (Esophageal Squamous Cell Carcinoma)
Summary of the method: as §1

[4] = tested on: FADU (Head and Neck Carcinoma)
Summary of the method: as §1

GB-1 (Glioblastoma) = tested on: GB-1 (Glioblastoma)
Summary of the method: as §1

[5] = tested on: HSC-39 (Gastric Carcinoma)
Summary of the method: as §1

[6] = tested on: KE-37 (T-Lymphoblastic Leukemia)
Summary of the method: as §1

[7] = tested on: L-1236 (Hodgkin's Lymphoma)
Summary of the method: as §1

LN-229 (Glioblastoma) = tested on: LN-229 (Glioblastoma)
Summary of the method: as §1

[8] = tested on: MFE-280 (Endometrial Carcinoma)
Summary of the method: as §1

[9] = tested on: NCI-H23 (Lung Adenocarcinoma)
Summary of the method: as §1

[10] = tested on: NCI-H2342 (Lung Adenocarcinoma)
Summary of the method: as §1

[11] = tested on: PC-3_[JPC-3] (Lung Adenocarcinoma)
Summary of the method: as §1

[12] = tested on: REH (B-Lymphoblastic Leukemia)
Summary of the method: as §1

[13] = tested on: RERF-GC-1B (Gastric Carcinoma)
Summary of the method: as §1

SF268 (Low Grade Glioma) = tested on: SF268 (Low Grade Glioma)
Summary of the method: as §1

[14] = tested on: SU-DHL-10 (B-Cell Non-Hodgkin's Lymphoma)
Summary of the method: as §1

[15] = tested on: TE-8 (Esophageal Squamous Cell Carcinoma)
Summary of the method: as §1

WM278 (Melanoma) = tested on: WM278 (Melanoma)
Summary of the method: as §1

SMILES	combination Emax [1]	combination Emax (A2058 (Melanoma))	combination Emax [2]	combination Emax [3]	combination Emax [4]	combination Emax (GB-1 (Glioblastoma))	combination Emax [5]	combination Emax [6]	combination Emax [7]	combination Emax (LN-229 (Glioblastoma))	combination Emax [8]	combination Emax [9]	combination Emax [10]	combination Emax [11]	combination Emax [12]	combination Emax [13]	combination Emax (SF268 (Low Grade Glioma))	combination Emax [14]	combination Emax [15]	combination Emax (WM278 (Melanoma))
CCN(CCO)CCCOc1ccc2c(Nc3cc(CC(=O)Nc4cccc(F)c4)[nH]n3)ncnc2c1 [AZD2811] + C=CCn1c(=O)c2cnc(Nc3ccc(N4CCN(C)CC4)cc3)nc2n1-c1cccc(C(C)(C)O)n1 [AZD1775] (first compound max 1 µM, partner max 1 µM)	0.656	0.15	0.787	0.178	0.608	0.332	0.985	1	0.74	0.218	0.521	0.829	0.262	0.413	0.741	0.816	0.245	1	0.781	0.171
CCN(CCO)CCCOc1ccc2c(Nc3cc(CC(=O)Nc4cccc(F)c4)[nH]n3)ncnc2c1 [AZD2811] + C[C@@H]1COCCN1C2=NC(=NC(=C2)C3(CC3)[S@](=N)(=O)C)C4=C5C=CNC5=NC=C4 [AZD6738] (first compound max 1 µM, 7x7, partner max 10 µM)	0.811	0.246	0.741	0.309	0.654	0.366	1	1	0.595	0.562	0.436	0.785	0.213	0.304	0.787	0.439	0.381	0.985	0.781	0.332
CCN(CCO)CCCOc1ccc2c(Nc3cc(CC(=O)Nc4cccc(F)c4)[nH]n3)ncnc2c1 [AZD2811] + O=C(c1cc(Cc2n[nH]c(=O)c3ccccc23)ccc1F)N1CCN(C(=O)C2CC2)CC1 [Olaparib] (first compound max 1 µM, 7x7, partner max 10 µM)	0.246	0.218	0.277	0.196	0.299	0.194	0.985	0.998	0.158	0.167	0.339	0.235	0.166	0.205	0.487	0.316	0.178	0.745	0.335	0.166
CN(CCO)CC[C@H](CSc1ccccc1)Nc1ccc(S(=O)(=O)NC(=O)c2ccc(N3CCC([C@@H](O)c4ccccc4-c4ccc(Cl)cc4)CC3)cc2)cc1S(=O)(=O)C(F)(F)F [AZD4320] + C1CN(CCC1(C(=O)N[C@@H](CCO)C2=CC=C(C=C2)Cl)N)C3=NC=NC4=C3C=CN4 [Capivasertib] (first compound max 1 µM, 7x7, partner max 3 µM)	0.221	0.191	0.152	0.0496	0.116	0.117	0.328	1	0.965	0	0.88	0.093	0.3	0.152	1	0.496	0.211	0.97	0.349	0.599
CN(CCO)CC[C@H](CSc1ccccc1)Nc1ccc(S(=O)(=O)NC(=O)c2ccc(N3CCC([C@@H](O)c4ccccc4-c4ccc(Cl)cc4)CC3)cc2)cc1S(=O)(=O)C(F)(F)F [AZD4320] + C=CCn1c(=O)c2cnc(Nc3ccc(N4CCN(C)CC4)cc3)nc2n1-c1cccc(C(C)(C)O)n1 [AZD1775] (first compound max 1 µM, partner max 1 µM)	0.846	0.355	0.878	0.223	0.453	0.223	0.958	1	1	0.428	0.953	0.832	0.38	0.411	1	0.962	0.587	0.992	0.932	0.765
CN(CCO)CC[C@H](CSc1ccccc1)Nc1ccc(S(=O)(=O)NC(=O)c2ccc(N3CCC([C@@H](O)c4ccccc4-c4ccc(Cl)cc4)CC3)cc2)cc1S(=O)(=O)C(F)(F)F [AZD4320] + CCN(CCO)CCCOc1ccc2c(Nc3cc(CC(=O)Nc4cccc(F)c4)[nH]n3)ncnc2c1 [AZD2811] (first compound max 1 µM, 7x7, partner max 1 µM)	0.258	0.47	0.488	0.137	0.245	0.117	0.966	1	0.961	0.185	0.888	0.216	0.384	0.147	1	0.568	0.519	0.759	0.583	0.635
